Test results taken from the supplement of paper PMC4862054.

Assays:
HCC1937 [1] = conditions: 72 h
How it was run: (§1)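 Viability of breast cancer cell lines was measured with CellTiter-Blue after 72 h of incubation on compound-loaded 384-well plates. Cells were seeded in 20 µl onto compound dissolved in 5 µl medium, and 2.5 µl reagent was added for 2 h at 37 °C before reading at 560/590 nm. EC50 was fitted from percent-inhibition dose-response data censored at the highest concentration, normalised per plate to vehicle and a positive kill control, with zero drug sensitivity score rows dropped.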

SK-BR-3 [2] = conditions: 72 h
How it was run: as §1

Hs578T [3] = conditions: 72 h
How it was run: as §1

MDA-MB-231 [4] = conditions: 72 h
How it was run: as §1

BT-474 [5] = conditions: 72 h
How it was run: as §1

MDA-MB-468 [6] = conditions: 72 h
How it was run: as §1

Hs578T [7] = conditions: 72 h; remark: listed apart in the source
How it was run: (§2)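 Two sequential readouts followed a 72 h incubation of breast cancer cell lines with compound at 5 concentrations in 10-fold steps over a compound-specific 10,000-fold range: CellTox Green fluorescence (485/520 nm) for cell death, then CellTiter-Glo luminescence, after 10 min at room temperature, for viability. Each plate was normalised to 0.1 % DMSO and a positive kill control. Dose-response curves were fitted for EC50, censored at the top concentration.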

DU-4475 [8] = conditions: 72 h
How it was run: as §2

MDA-MB-453 [9] = conditions: 72 h
How it was run: as §2

HCC1937 [10] = conditions: 72 h; remark: listed apart in the source
How it was run: as §2

HDQ-P1 [11] = conditions: 72 h
How it was run: as §2

MCF-10A [12] = conditions: 72 h
How it was run: as §2

CAL-148 [13] = conditions: 72 h
How it was run: as §2

MDA-MB-468 [14] = conditions: 72 h; remark: listed apart in the source
How it was run: as §2

HCC1599 [15] = conditions: 72 h
How it was run: as §2

CAL-85-1 [16] = conditions: 72 h
How it was run: as §2

HCC1937 [17] = conditions: 72 h; remark: listed apart in the source
Protocol: (§3)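 Drug sensitivity and resistance testing (DSRT) of breast cancer cell lines in 384-well plates, 5 concentrations in 10-fold dilutions over a compound-specific 10,000-fold range. After 72 h, cytotoxicity was read by CellTox Green fluorescence and viability by CellTiter-Glo luminescence (multiplexed), normalised to DMSO and benzethonium chloride controls. EC50 is the inflection point of the fitted dose-response curve (bottom asymptote free, so it can be relative for partial curves) and is censored at the highest tested concentration. Rows with DSS 0 (no meaningful response) were excluded.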

HDQ-P1 [18] = conditions: 72 h; remark: listed apart in the source
Protocol: as §3

Hs578T [19] = conditions: 72 h; remark: listed apart in the source
Protocol: as §3

CAL-148 [20] = conditions: 72 h; remark: listed apart in the source
Protocol: as §3

CAL-51 [21] = conditions: 72 h
Protocol: as §3

MDA-MB-231 [22] = conditions: 72 h; remark: listed apart in the source
Protocol: as §3

BT-474 [23] = conditions: 72 h; remark: listed apart in the source
Protocol: as §3

BT-549 = conditions: 72 h
Protocol: as §3

CAL-120 [24] = conditions: 72 h
Protocol: as §3

HCC1143 [25] = conditions: 72 h
Protocol: as §3

MCF-10A [26] = conditions: 72 h; remark: listed apart in the source
Protocol: as §3

MFM-223 = conditions: 72 h
Protocol: as §3

HCC1937 [27] = test: normalised response (% of control), CellTiter-Glo; higher = more viable cells (100 = DMSO, 0 = benzethonium chloride kill control); conditions: incubation time: 72 h
How it was run: (§4)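 For each plate, 0.1 % DMSO was set to 100 and a positive kill control to 0. Breast cancer cell lines (20 µl suspension) were seeded into 384-well plates already holding compound at 5 concentrations in 10-fold steps over a 10,000-fold range chosen per compound, and incubated for 72 h. CellTox Green fluorescence at 485/520 nm was read before CellTiter-Glo luminescence, which followed 10 min at room temperature. Each value is the normalised signal at one concentration.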

SK-BR-3 [28] = test: as above; conditions: incubation time: 72 h
How it was run: as §4

HCC1143 [29] = test: as above; conditions: incubation time: 72 h
How it was run: as §4

Hs578T [30] = test: as above; conditions: incubation time: 72 h
How it was run: as §4

CAL-148 [31] = test: as above; conditions: incubation time: 72 h
How it was run: as §4

CAL-51 [32] = test: as above; conditions: incubation time: 72 h
How it was run: as §4

DU-4475 [33] = test: as above; conditions: incubation time: 72 h
How it was run: as §4

MDA-MB-231 [34] = test: as above; conditions: incubation time: 72 h
How it was run: as §4

CAL-120 [35] = test: as above; conditions: incubation time: 72 h
How it was run: as §4

MDA-MB-468 [36] = test: as above; conditions: incubation time: 72 h
How it was run: as §4

CAL-85-1 [37] = test: as above; conditions: incubation time: 72 h
How it was run: as §4

MDA-MB-436 = conditions: 72 h
Protocol: as §3

HCC1599 [38] = conditions: 72 h; remark: listed apart in the source
Protocol: as §3

MDA-MB-453 [39] = conditions: 72 h; remark: listed apart in the source
Protocol: as §3

MDA-MB-468 [40] = conditions: 72 h; remark: listed apart in the source
Protocol: as §3

SMILES	EC50, CellTiter-Blue viability (HCC1937 [1])	EC50, CellTiter-Blue viability (SK-BR-3 [2])	EC50, CellTiter-Blue viability (Hs578T [3])	EC50, CellTiter-Blue viability (MDA-MB-231 [4])	EC50, CellTiter-Glo (Hs578T [7])	EC50, CellTiter-Glo (DU-4475 [8])	EC50, CellTiter-Glo (MDA-MB-453 [9])	EC50, CellTiter-Glo (HCC1937 [10])	EC50, CellTiter-Glo (HDQ-P1 [11])	EC50, CellTiter-Glo (MCF-10A [12])	EC50, CellTiter-Glo (MDA-MB-468 [14])	EC50, CellTiter-Glo (CAL-85-1 [16])	EC50, CellTox Green (CAL-51 [21])	EC50, CellTox Green (BT-549)	further results
CS(=O)(=O)N1CCN(Cc2cc3nc(-c4cccc5[nH]ncc45)nc(N4CCOCC4)c3s2)CC1 [GDC-0941]	958 nM	158 nM	1460 nM	2240 nM											EC50, CellTiter-Blue viability (BT-474 [5]): 770 nM; EC50, CellTiter-Blue viability (MDA-MB-468 [6]): 1650 nM
O=S(=O)(c1cccc2cnccc12)N1CCCNCC1 [Fasudil]					> 50000 nM	> 50000 nM	27400 nM								
COc1ccc(-c2cc3c(C)nc(N)nc3n([C@H]3CC[C@H](OCCO)CC3)c2=O)cn1	63 nM	40.5 nM	158 nM	144 nM	238 nM	756 nM	115 nM	444 nM	190 nM	122 nM	208 nM	229 nM	783 nM	3870 nM	EC50, CellTiter-Glo (CAL-148 [13]): 294 nM; EC50, CellTiter-Glo (HCC1599 [15]): 402 nM; EC50, CellTiter-Blue viability (BT-474 [5]): 193 nM; EC50, CellTiter-Blue viability (MDA-MB-468 [6]): 268 nM; EC50, CellTox Green (HCC1937 [17]): 5410 nM; EC50, CellTox Green (HDQ-P1 [18]): 1990 nM; EC50, CellTox Green (Hs578T [19]): 6070 nM; EC50, CellTox Green (CAL-148 [20]): 787 nM; EC50, CellTox Green (MDA-MB-231 [22]): 575 nM; EC50, CellTox Green (BT-474 [23]): 983 nM
COc1cc(CCc2cc(NC(=O)c3ccc(N4CC(C)NC(C)C4)cc3)n[nH]2)cc(OC)c1 (configuration not stated) [AZD4547]										91.2 nM					EC50, CellTox Green (CAL-120 [24]): > 1000 nM
Cc1ccc(Nc2nccc(N(C)c3ccc4c(C)n(C)nc4c3)n2)cc1S(N)(=O)=O [Pazopanib]					> 10000 nM										EC50, CellTox Green (HCC1143 [25]): > 10000 nM
CS(=O)(=O)N1CCN(Cc2cc3nc(-c4cccc5[nH]ncc45)nc(N4CCOCC4)c3s2)CC1 [Pictilisib]					1890 nM		508 nM	3840 nM	657 nM	397 nM	3040 nM	997 nM	2090 nM		EC50, CellTiter-Glo (CAL-148 [13]): 1350 nM; EC50, CellTox Green (MCF-10A [26]): 270 nM; EC50, CellTox Green (CAL-148 [20]): 293 nM; EC50, CellTox Green (BT-474 [23]): 9300 nM; EC50, CellTox Green (MFM-223): 955 nM
CC[C@@]1(O)C(=O)OCc2c1cc1n(c2=O)Cc2cc3c(CN(C)C)c(O)ccc3nc2-1 [Topotecan] (100 nM)															normalised response (HCC1937 [27]): 95.7%; normalised response (SK-BR-3 [28]): 66.3%; normalised response (HCC1143 [29]): 92.9%; normalised response (Hs578T [30]): 101%; normalised response (CAL-148 [31]): 62.4%; normalised response (CAL-51 [32]): 98.2%; normalised response (DU-4475 [33]): 77.9%; normalised response (MDA-MB-231 [34]): 92.8%; normalised response (CAL-120 [35]): 95.9%; normalised response (MDA-MB-468 [36]): 62.5%; normalised response (CAL-85-1 [37]): 85.7%
Cn1cc(CNCC2CCN(c3ncc(C(=O)NO)cn3)CC2)c2ccccc21	33.6 nM	5.33 nM	65.1 nM	47.8 nM											EC50, CellTiter-Blue viability (BT-474 [5]): 17 nM; EC50, CellTiter-Blue viability (MDA-MB-468 [6]): 38.9 nM
O=C(NC[C@H](O)CO)c1ccncc1Nc1ccc(I)cc1F				19.7 nM											
COc1nc(N)nc2c1ncn2[C@@H]1O[C@H](CO)[C@@H](O)[C@@H]1O [Nelarabine]														> 10000 nM	
Cc1nc(Nc2ncc(C(=O)Nc3c(C)cccc3Cl)s2)cc(N2CCN(CCO)CC2)n1 [Dasatinib]			49.7 nM	16.8 nM	88.7 nM			54.7 nM	18.3 nM	16.4 nM	28.5 nM	79.4 nM	10.3 nM	162 nM	EC50, CellTox Green (Hs578T [19]): 277 nM; EC50, CellTox Green (MCF-10A [26]): 599 nM; EC50, CellTox Green (MDA-MB-231 [22]): 515 nM
C[C@]12O[C@H](C[C@]1(O)CO)n1c3ccccc3c3c4c(c5c6ccccc6n2c5c31)CNC4=O [Lestaurtinib]	369 nM	813 nM			354 nM	188 nM	3.03 nM	> 1000 nM	233 nM	215 nM	25.2 nM	277 nM		1000 nM	EC50, CellTiter-Glo (HCC1599 [15]): 238 nM; EC50, CellTox Green (MDA-MB-436): 11.9 nM; EC50, CellTox Green (Hs578T [19]): 333 nM; EC50, CellTox Green (MDA-MB-231 [22]): > 1000 nM; EC50, CellTox Green (BT-474 [23]): 819 nM; EC50, CellTox Green (HCC1599 [38]): 439 nM
CC(=O)OC[C@H]1O[C@@H]([S-])[C@H](OC(C)=O)[C@@H](OC(C)=O)[C@@H]1OC(C)=O.CCP(CC)CC.[Au+] [Auranofin]					1020 nM	1870 nM	612 nM	552 nM	1120 nM	1630 nM	140 nM	723 nM	186 nM	712 nM	EC50, CellTiter-Glo (CAL-148 [13]): 2190 nM; EC50, CellTiter-Glo (HCC1599 [15]): 2110 nM; EC50, CellTox Green (HCC1937 [17]): 926 nM; EC50, CellTox Green (HDQ-P1 [18]): 694 nM; EC50, CellTox Green (HCC1143 [25]): > 2500 nM; EC50, CellTox Green (CAL-148 [20]): 2060 nM; EC50, CellTox Green (MDA-MB-231 [22]): 1330 nM; EC50, CellTox Green (CAL-120 [24]): > 2500 nM; EC50, CellTox Green (BT-474 [23]): 646 nM; EC50, CellTox Green (MDA-MB-453 [39]): 1590 nM; EC50, CellTox Green (MDA-MB-468 [40]): 412 nM; EC50, CellTox Green (MFM-223): 958 nM
CC(C)N(CCCNC(=O)Nc1ccc(C(C)(C)C)cc1)C[C@H]1O[C@@H](n2cc(Br)c3c(N)ncnc32)[C@H](O)[C@@H]1O [SGC0946]											2470 nM				
O=C1c2c(O)ccc(O)c2C(=O)c2c(NCCNCCO)ccc(NCCNCCO)c21 [Mitoxantrone]	2.13 nM	34.5 nM	532 nM	51.7 nM		988 nM							185 nM		EC50, CellTiter-Glo (CAL-148 [13]): 403 nM; EC50, CellTiter-Blue viability (BT-474 [5]): 106 nM; EC50, CellTiter-Blue viability (MDA-MB-468 [6]): 74.8 nM; EC50, CellTox Green (CAL-148 [20]): 124 nM
